Data published in patent publication US20100034746A1, “ANIMAL MODEL, SYSTEM, AND METHOD FOR SCREENING COMPOUNDS FOR ANTI[…]/OR TH[…]” (Piramal Life Sciences Limited, priority 2007, published 2010).

How the values were obtained:
thrombus formation [1] = assay: Cross-circulation thrombosis model, cannulae connected with damaged rat thoracic aorta; survival time of recipient after blocking trachea; type: in vivo, Wistar rats
From the text: In the present experiment, the piece of latex tubing used in Example 1 was replaced by a piece of rat thoracic aorta with damaged endothelium, so that the anti-thrombotic effect of the compounds could be studied in a near natural situation.
Maintenance of a patent vasculature is critical to provide blood flow to dependent tissues. […] Following vessel injury, active hemostasis results from vasoconstriction, adherence of activated platelets to damaged endothelium, their aggregation and activation of coagulation enzymes, finally resulting into thrombosis. It has been shown that chronic carbon tetrachloride treatment to rats causes serious damage to vascular endothelial cells and thus the blood vessels get damaged. It was thought of using these damaged vessels, instead of latex tubing (used in Example 1), to connect arterial and venous cannulae of donor and recipient, in order to mimic the physiological process of thrombus formation.
They were administered carbon tetrachloride (Fluka) in olive oil (Figaro, Spain) (1:1 v/v), 0.5 ml/kg, intraperitoneally, twice a week for eight continuous weeks. […]
In spite of the blocked trachea, the recipient survived, as long as the oxygenated blood supply from the donor continued. Survival was monitored by the animal's effort to respire. […]
(§1) The survival time of the recipients in the abovementioned experiments was recorded.

thrombus formation [2] = assay: Cross-circulation thrombosis model, cannulae connected with latex tubing; survival time of recipient after blocking trachea; type: in vivo, Wistar rats; details: cannula with latex tubing; for Survival time of the recipients, result in words: compared with vehicle/saline treated control animals; for Survival time (min) Mean ± S.E.: recipient rat
From the text: Wistar rats (either sex; weighing 290-310 g) were used throughout the experiments. Animals were housed and cared for in accordance with the Guidelines in force published by CPCSEA (Committee for the Purpose of Control and Supervision of Experiments on Animals), Tamil Nadu, India. Procedures using laboratory animals were approved by the IAEC (Institutional Animal Ethics Committee) of the Research Centre of Nicholas Piramal India Limited, Mumbai, India.
In one experiment a pair of rats were anesthetized using urethane (1.5 g/kg; Fluka) by intra-peritoneal administration. After anesthetization, one of the jugular veins and carotid arteries of each of the rats were exposed and clamped. Polyethylene cannulae (0.76 mm ID and 1.22 mm OD, polyethylene tubing, each 6.0 cm in length; Portex Ltd) filled with normal saline (0.9%, w/v, sodium chloride, Merck) were introduced into these vessels and secured tightly by tying with cotton thread (No. 40, Madura Coats Ltd., India). Furthermore, trachea of any one of the rats was exposed and a piece of thread was put loosely around it (recipient). Then the arterial cannula of one of the rats was connected to the venous cannula of the other rat and vice versa, using 2.5 cm long piece of latex tubing (0.89 mm ID; PharMed, Cole-Parmer). FIG. 1 schematically illustrates these rats.
The experiment was initiated by opening the clamps on all the vessels, which initiated cross circulation of blood between the two animals. […] FIG. 2 schematically illustrates these rats.
Survival was monitored by the animal's effort to respire.
In another experiment, pairs of rats were treated with antithrombotic/thrombolytic agents selected from the following list:
The drug suspensions for oral use were prepared in the vehicle, carboxymethyl cellulose (CMC, 0.5% w/v, Sigma), using polyoxyethylenesorbitan monooleate (Tween 80, Sigma) as a wetting agent. Commercially available streptokinase solution was diluted with normal saline to an appropriate concentration for the i.v. use.
Vehicle/drugs were administered to rats orally at the doses mentioned above, in a volume of 1 ml/kg. With the exception of streptokinase, all other drugs were administered once daily for three consecutive days and the experiment was performed on the third day, one hour after the administration of the last dose. The vehicle-treated animals were used as controls.
Streptokinase was administered as a continuous infusion at a dose of 60,000 I.U./ml/kg/hour intravenously, through the femoral vein of the recipient and was administered only on the day of experiment. As a source of plasminogen, human plasma was injected to the animal intravenously at a dose of 1 ml/kg, just before blocking the trachea. Streptokinase infusion was initiated two minutes after blocking the trachea of the recipient. Saline-infused animals were used as control for streptokinase-treated animals.
as §1

[3] = 20 mg/kg p.o. once daily for three days, 1 h after last dose, CMC control 10.9 ± 0.70

Compound	Survival time of the recipients, result in words (thrombus formation [2])	Survival time (min) Mean ± S.E. (thrombus formation [2]; [3]) [min]	further results
CC(=O)Oc1ccccc1C(=O)O [Aspirin, acetylsalicylic acid]	Significant increase in the survival time	–	Survival time of the recipient, result in words (thrombus formation [1]; cannula with damaged blood vessel, compared with appropriate control animals): Significant increase in the survival time; Survival time (min) Mean ± S.E. (thrombus formation [1]; recipient rat, cannula with damaged thoracic aorta, 20 mg/kg p.o. once daily for three days, CMC control 5.18 ± 0.99): 33.9 ± 4.58 min; Survival time (min) Mean ± S.E. (thrombus formation [2]; 20 mg/kg p.o. once daily for three days, 1 h after last dose, CMC control 10.9 ± 0.70, 20 mg/kg): 45.3 ± 4.40 min
COC(=O)[C@H](c1ccccc1Cl)N1CCc2sccc2C1 [Clopidogrel, Clopidogrel bisulphate]	–	47.8 ± 3.78	–
OCCN(CCO)c1nc(N2CCCCC2)c2nc(N(CCO)CCO)nc(N3CCCCC3)c2n1 [Dipyridamole]	–	38.5 ± 1.55	–
Streptokinase	significant prolongation of the survival time	–	Survival time (min) Mean ± S.E. (thrombus formation [2]; 60,000 IU/ml/kg/hr i.v. continuous infusion, human plasma 1 ml/kg i.v., saline control 10.4 ± 0.91): 89.5 ± 10.55 min
